# Reference: patent US20210379046A1, “Methods of Treating Diseases Using Kinase Modulators” (Memorial Sloan Kettering Cancer Center, priority 2018, published 2021)
# Values joined by “and” are separate entries in the source; they are usually repeats but may differ in a detail not shown here. Equal values may be shown once. “Also recorded” adds a separate entry of the source.
# What was measured:
# [1] = system: TPC1 cells; experiment: Flow cytometry of cell surface HLA and checkpoint ligands on TPC1 cells; format: cell-based, human
# Method: (§1) If adherent cells, they were seeded one day before treatment.
# [2] = system: TT cells; experiment: Flow cytometry of cell surface HLA on TT cells; format: cell-based, human; conditions: 72 hrs
# Method: as §1
# [3] = system: pERK in TPC1 cells; experiment: Western blot of pERK in TPC1 cells; format: cell-based, human; conditions: TPC1, 24 hrs
# Method: Cells were seeded in a 60 mm dish or 6 well plates. After the appropriate time point, cells were harvested and lysed and protein was quantified by a Lowry assay (Bio-Rad DC Protein Assay; #5000116). Protein levels were normalized and run on SDS PAGE gels (Bio-Rad). Protein was transferred to a nitrocellulose membrane using semi-dry transfer. Membrane was blocked and incubated with respective antibodies. When needed, secondary antibodies with HRP were incubated for 1 hr. Enhanced chemiluminescent substrate for HRP enzymes was used to image protein levels (Thermo-Fischer; #34095).
# Cells were seeded in a 60 mm dish or 6 well plates. After the appropriate time point, cells were harvested, lysed in RIPA buffer (Thermo Instruments) and protein concentration was quantified by a Lowry assay (using the Bio-Rad DC Protein Assay; #5000116 on a Spectramax device from Molecular Devices). Protein loading levels were equalized per lane and separated on SDS gels (Bio-Rad). Protein was transferred to a nitrocellulose membrance using semi-dry transfer (BioRad). Membranes were blocked with Omniblock (American Bio) and incubated with respected antibodies. When needed, secondary antibodies with HRP were incubated for 1 hr. Enhanced chemiluminescent substrate for HRP enzymes was used to image protein levels (Thermo-Fischer; #34095) on a ChemiDoc MP imager with Soft Max Pro software (Biorad).
# [4] = system: TPC1 cells; experiment: ADCC chromium-51 release assay with ESK1 and human PBMCs on inhibitor-pretreated TPC1 cells; format: cell-based
# Method: Peripheral blood mononuclear cells were derived from healthy donors by Ficoll density centrifugation after receiving informed consent on Memorial Sloan Kettering Institutional Review board-approved protocols. TPC1 cells treated with RET inhibitor drugs and DMSO control were labeled with chromium-51 and co-cultured with PBMCs and ESK (or its isotype control, hIgG1). Different E:T ratios were used and after 5 hrs of incubation at 37° C., the supernatant was harvested and chromium levels were measured by Chromium-51 release assay (Perkin Elmer). Higher chromium levels indicated higher levels of cytotoxicity.
# After the addition of ESK and peripheral blood mononuclear cells for 5 hrs, chromium release was measured.
# For each experiment reported, fresh peripheral blood mononuclear cells were derived from a healthy donor by Ficoll density centrifugation after receiving informed consent on Memorial Sloan Kettering Institutional Review Board-approved protocols. […] Cells were then labeled with 1 uCi/well chromium-51 for 1 hr at 37° C. […] Different effector:target ratios were used and after 5 hrs of incubation at 37° C., the supernatant was harvested and chromium levels were measured through standard chromium-51 release assay on a Top Count machine (Perkin Elmer).
# [5] = system: TPC1 tumors; experiment: TPC1 subcutaneous tumors in NRG mice, tumor HLA and PD-L1 by flow cytometry; format: in vivo; conditions: 7 days
# Method: Female NSG (NOD.Cg-Prkdc^scidIl2rg^tm1Wj1/SzJ) and NRG (NOD.Cg-Rag1^tm1MomIl2rg^tm1Wj1/SzJ) mice were purchased from the Jackson Laboratory or MSKCC breeding facility at 5-10 weeks old. For RET and ALK experiments, 2.5-6×10^6 tumor cells were subcutaneously injected into the flank of mice and when tumors were palpable, mice were treated daily with drug or vehicles through oral gavage. At day 7, tumors were harvested and flow cytometry was run to determine effect of inhibitors on HLA and PD-L1 on the tumor cells.
# To determine if the inhibitors produced similar therapeutic improvements in vivo, mice bearing the TPC1 tumor were treated with RET inhibitors. The highly immunodeficient NRG (NOD-Rag1null IL2rgnull) mice were subcutaneously injected with 2.5×10^6 luciferase tagged TPC1 cells in their right flank. […] Afterwards, cells were immediately harvested and stained with antibodies against HLA-A*02:01 and HLA-ABC.
# All animal experiments were conducted in accordance with and the approval of the MSKCC IACUC (Institutional Animal Care and Use Committee) protocols. Female NSG (NOD. Cg-Prkdc^scidIl2rg^tm1Wj1/SzJ) and NRG (NOD.Cg-Rag1^tm1MomIl2rg^tm1Wj1/SzJ) mice were purchased from the Jackson Laboratory at 5-10 weeks old. For experiments in vivo with RET and ALK, 2.5-6×10^6 tumor cells in PBS were subcutaneously injected into the flank of mice. […]
# [6] = system: TPC1 cells; experiment: Luminex cytokine secretion, TPC1 cells; format: cell-based, human; conditions: TPC1, 10 nm AST487
# Method: Supernatant media were harvested after treatment and analyzed by the Luminex device (Luminex Corporation, Austin, Tex.) for relevant cytokine secretion. […] On the left side of each panel is data after 24 hours. On the right side of each panel is data after 48 hours. […] IFNγ detected in the Luminex assay (50-70 ng/ml) is from the added IFNγ at 100 ng/ml at time zero. Therefore, the increase in HLA after inhibitor treatment in these cell lines is not due to indirect activation of the JAK/STAT pathway via autocrine cytokine signaling. The data points shown in this figure are in pairs for each condition. The data point pairs for each time point are, from left to right: DMSO, Rux, Alec, IFNg, and IFNg+Rux.
structure (smiles),measurement,setting,value
CCN1CCN(Cc2ccc(NC(=O)Nc3ccc(Oc4cc(NC)ncn4)cc3)cc2C(F)(F)F)CC1 [AST487],HLA levels increase without STAT3 knockdown,"[1]; TPC1, 10 nM AST487, 72 hrs",3 fold
same,"increase in surface HLA-A,B,C levels","[1]; TPC1, 72 hours",3- to 4 fold and 3 to 4 fold
same,surface HLA-A*02:01,"[1]; TPC1, 72 hrs",dose dependent increase in surface HLA-A*02
same,"surface HLA-A,B,C","[1]; TPC1, 72 hrs","Surface HLA-A,B,C increase"
same,surface HLA-E levels,"[1]; TPC1, 72 hrs",did not change
same,"HLA upregulation, AST487 compared with trametinib at the same concentrations","[1]; TPC1, 72 hrs, normalized to DMSO",more potent and increased HLA levels at lower doses of drug; also recorded: higher levels of HLA upregulation
same,HLA-A02 (BB7-FITC) surface level,"[1]; TPC1, AST 487 10 nM, 72 hours",led to upregulation of HLA
same,HLA levels increase after siSTAT3 pretreatment,"[1]; TPC1, siSTAT3 24 hrs before 10 nM AST487, 72 hrs, HLA-A*02",~6 folds
same,"increase in surface HLA, control group (pBabe)","[1]; TPC1 pBabe, 72 hours",~3 fold
same,"increase in surface HLA, BRAF V600E cells",[1]; TPC1 with introduced BRAF V600E mutation,about 2 fold
same,surface HLA,[2],increased in a AST487 dose-related manner; also recorded: increases in surface HLA
same,pERK levels,[3],Inhibition of pERK was seen even at concentrations as low as 10 nM; also recorded: Phospho-ERK levels decreased
same,ADCC activity of ESK1 against pretreated TPC1 cells,[4]; TPC1 pre-incubated with RET inhibitor,improved antibody-dependent cellular cytotoxicity (ADCC) activity; also recorded: increased in vitro ADCC cytotoxicity
same,specific lysis,"[4]; TPC1 pretreated 72 hrs with 10 nM AST487, ESK and PBMCs 5 hrs, 50:1 E:T",20%
same,"tumor cell surface HLA-A*02 and HLA-A,B,C in vivo",[5]; 10 or 35 mg/kg once daily oral gavage,Dose related increase in HLA levels; also recorded: Dose-related increases in all HLA class I levels; also recorded: increased in a dose related manner
same,tumor PD-L1 levels in vivo,[5]; oral gavage,no increase in PD-L1 was seen; also recorded: PD-L1 levels did not change in vivo
same,"IFNα, IFNγ, IL4, IL6 and TNFα secretion",[6],"had no effect on IFNα, IFNγ, IL4, IL6 or TNFα secretion; also recorded: had no effect on IFNα, IFNγ, IL4, IL6 and TNFα secretion"
